# Source: publication PMC6162693, “Investigation into the Thermal Response and Pharmacological Activity of Substituted Schiff Bases on α-Amylase and α-Glucosidase” (Antioxidants, 2018)
# Read-outs that look alike come from different tables or passages of the source.
# Columns and labels:
# Staphylococcus aureus = test: Broth microdilution antimicrobial assay, S. aureus; assay type: cell-based; details: for MBC: Staphylococcus aureus, read-out: MBC S. aureus
# Method: (§1) Exactly 1.5 mg of sodium;10-oxido-7-oxophenoxazin-10-ium-3-olate was dissolved in 100 mL of distilled water, vortexed, filtered, sterilised, and stored at 4 °C for a maximum of 14 days before being applied as a growth indicator. 1000 μM stock solution of Schiff bases (1–9) was prepared in DMSO.
# (§2) Fungi (Aspergillus niger, Candida albicans), Gram-positive bacteria (Staphylococcus aureus, Enterococcus faecalis), and Gram-negative bacteria (Salmonella typhi, Escherichia coli).
# (§3) Colonies from a 24 h culture agar plate were collected with a loop and transferred to a tube containing lysogeny broth (LB). The various suspensions were incubated at 37 °C and the size adjusted to 1.5 × 10^6 CFU/mL [27].
# (§4) The antimicrobial activity of Schiff bases (1–9), was evaluated using 96-well broth microdilution method as described by de Rapper et al. (2013) and Akhalwaya et al. (2018) with slight modifications. Columns 1–11 was filled 50 µL LB, followed by the addition of 50 µL of Schiff base to column 1. Thereafter, 50 µL of Schiff bases from column 1 was transferred by multichannel pipette to columns 2–10, resulting in 50 µL Schiff bases per well. Column 11 contained 100 µL of diluted standardised inoculum, while Column 12 contained 100 µL of LB as a control to monitor sterility. Then, 50 µL of the microorganism suspension was then added to columns 1–10 and the control column 11. The plates were incubated at 37 °C for 24 h, followed by the addition of 30 µL of growth indicator solution and further incubated for 2 h for the observation of colour change. On completion of incubation, the columns with blue indicator colour were reported as the MIC (µM) values. The columns with a concentration higher than the MIC value were plated on nutrient agar to determine the minimum bactericidal and fungicidal concentrations.
# Escherichia coli = test: Broth microdilution antimicrobial assay, E. coli; assay type: cell-based; details: for MBC: Escherichia coli, read-out: MBC E. coli
# Method: as §1, §2, §3, §4
# Aspergillus niger = test: Broth microdilution antimicrobial assay, A. niger; assay type: cell-based
# Method: as §1, §2, §3, §4
# [1] = Radical scavenging over DPPH, ABTS and H2O2 assays; details: lower limit over the three radical assays; read-out: IC50 values for quenching the radicals (lowest over DPPH, ABTS, H2O2)
# Method: (§5) The antioxidant activities of Schiff bases (1–9) were determined by DPPH, ABTS^+, H2O2, ferric reducing power assays, and compared with 3,4,5-trihydroxybenzoic acid (10), 5-(1,2-dihydroxyethyl)-3,4-dihydroxyfuran-2(5H)-one (11), and 2-(3,4-dihydroxyphenyl)-3,5,7-trihydroxy-4H-chromen-4-one (12) (as controls).
# The scavenging activity of compounds (1–12) was evaluated by adding an ethanolic solution of DPPH (300 μL, 0.05 mM) and incubated for 30 min in the dark. After that, changes in the absorbance of the mixture were measured at 517 nm on a UV-Vis spectrophotometer. […]
# A mixture of ABTS (960.2 mg) and potassium persulphate (165.6 mg) was dissolved in 250 mL of distilled water to generate the blue-green ABTS^+ solution. The ABTS solution was stored away in the dark at ambient temperature for 24 h to generate sufficient ABTS radical cation (ABTS^+), then the absorbance was adjusted to 0.9547 with distilled water. […] Changes in concentration of ABTS^+ were measured at 734 nm on a spectrophotometer. […] The IC50 (μM) of the compounds were determined by linear regression analysis, and all analyses were carried out in triplicate. […]
# According to the methods of Ruch et al., the H2O2 scavenging activity of compounds (1–12) was evaluated. […] The absorbance of the mixture was measured at 230 nm, thereafter, the %H2O2 scavenging activity (Equation (4)) and IC50 (μM) of the compounds 1–12 was determined. […]
# [2] = DPPH radical scavenging activity; details: absorbance at 517 nm, 30 min; mean ± SD (n = 3)
# Method: as §5
# The scavenging activity of compounds (1–12) was evaluated by adding an ethanolic solution of DPPH (300 μL, 0.05 mM) and incubated for 30 min in the dark. After that, changes in the absorbance of the mixture were measured at 517 nm on a UV-Vis spectrophotometer. The percentage radical scavenging activities (%RSA) and half maximal inhibitory concentration (IC50) of the compounds were estimated from Equation (2) and by linear regression analysis, respectively. All studies were carried out in triplicate. (2) % RSA= 100⌊(Abs. of DPPH − Abs. of test compound)/(Abs. of DPPH)⌋
# [3] = ABTS radical cation decolourisation assay; details: absorbance at 734 nm, 30 min; mean ± SD (n = 3)
# Method: as §5
# A mixture of ABTS (960.2 mg) and potassium persulphate (165.6 mg) was dissolved in 250 mL of distilled water to generate the blue-green ABTS^+ solution. The ABTS solution was stored away in the dark at ambient temperature for 24 h to generate sufficient ABTS radical cation (ABTS^+), then the absorbance was adjusted to 0.9547 with distilled water. Precisely 40 µL solution of the compounds were added to 3 mL ABTS^+ solution and incubated at 298 K for 30 min in the dark. Changes in concentration of ABTS^+ were measured at 734 nm on a spectrophotometer. The degree of ABTS^+ decolourisation was a template for evaluating the percentage proton-donating potential (%PDP) of the test compounds [24]; estimated from Equation (3). The IC50 (μM) of the compounds were determined by linear regression analysis, and all analyses were carried out in triplicate. (3) % PDP = 100⌊(Abs. of ABTS ^+ − Abs. of test compound)/(Abs. of ABTS^+)⌋
# Candida albicans = test: Broth microdilution antimicrobial assay, C. albicans; assay type: cell-based
# Method: as §1, §2, §3, §4
# H2O2-scavenging activity = details: absorbance at 230 nm; mean ± SD (n = 3)
# Method: as §5
# According to the methods of Ruch et al., the H2O2 scavenging activity of compounds (1–12) was evaluated. To 100 µL aliquot of the test compounds was added 0.4 mL of 50 mM phosphate buffer followed by 0.6 mL of 2 mM H2O2 solution prepared in 50 mM phosphate buffer (pH 6.8). The absorbance of the mixture was measured at 230 nm, thereafter, the %H2O2 scavenging activity (Equation (4)) and IC50 (μM) of the compounds 1–12 was determined. All analyses were carried out in triplicate. (4) % H2O2 − scavenging activity = 100⌊(Abs. of H2O2 − Abs. of test compound)/(Abs. of H2O2)⌋
# α-glucosidase = test: α-Glucosidase inhibitory activity; assay type: biochemical; details: Means ×10^2 ± SD from at least three experiments
# Method: The inhibitory activity of Schiff bases (1-9) against α-glucosidase was assessed by the method previously described by […] et al. […] Then, approximately 0.2 mL of Schiff base solution was mixed with 1.0 mL of 50 mM sodium phosphate buffer (pH 6.9) and 50 μL of α-glucosidase solution (2 U/mL). Thereafter, incubated at 37 °C for 10 min, followed by the addition of exactly 50 μL of 0.7 mM p-nitrophenyl-α-D-glucopyranoside solution in 50 mM sodium phosphate buffer (pH 6.9) and further incubated for 30 min at 37 °C. The reaction was terminated by the addition of 2.0 mL solution of 0.5 M Na2CO3. 0.3 mL aliquot of the above mixture was mixed with 4.7 mL of distilled water and the absorbance measured at 405 nm. […] (6) α - glucosidase inhibition (%) = (Ae - ASB/Ae)100 where Ae is the absorbance of the enzyme solution after incubation and ASB is the absorbance after incubation of Schiff bases solution. The assay was performed in triplicate.
# α-amylase = test: α-Amylase inhibitory activity; assay type: biochemical; details: Means ×10^2 ± SD from at least three experiments
# Method: The α-amylase inhibitory activity of Schiff bases (1–9) was evaluated by the method reported by Xiao et al. with slight modifications. Substrate solution is prepared by dissolving 1.0 g of starch in 50 mL of 0.4 M NaOH and heated at 100 °C for 5 min. The substrate solution was adjusted to a neutral pH by the addition of 0.1 M HCl, cooled on crushed ice and made to 100 mL in a standard volumetric flask with distilled water. […] Using a microplate, 40 μL substrate and 20 μL Schiff base solution were mixed, then preincubated at 37 °C for 3 min. Thereafter, 20 μL of 50 μg/mL α-amylase solution was dispensed into each well, and further incubated for 15 min. The reaction was terminated by the addition of 80 μL HCl (0.1 M); followed by 200 μL of 1 mM iodine solution, and the absorbances measured at 650 nm. Inhibitory activity was calculated from Equation (5):(5) α − amylase inhibition (%) = (A2 − A1/A4 − A3)100 where A1 is the absorbance of Schiff base, starch, and α-amylase solution after incubation, A2 is the absorbance of Schiff base and starch solution after incubation, A3 is the absorbance of starch and amylase solution after incubation, and A4 is the absorbance of a starch solution after incubation. Thereafter, the IC50 value was determined from the plot of % inhibition versus concentration.
# Salmonella typhi = test: Broth microdilution antimicrobial assay, S. typhi; assay type: cell-based; details: Salmonella enterica, TYPHI, read-out: MBC S. typhi
# Method: as §1, §2, §3, §4
# Enterococcus faecalis = test: Broth microdilution antimicrobial assay, E. faecalis; assay type: cell-based; details: for MBC: Enterococcus faecalis, read-out: MBC E. faecalis
# Method: as §1, §2, §3, §4
# [4] = test system: Fungi (Aspergillus niger, Candida albicans); test: Broth microdilution MIC, antifungal (fungus not specified); assay type: cell-based; details: read-out: MIC (antifungal)
# Method: as §1, §2, §3
# The antimicrobial activity of Schiff bases (1–9), was evaluated using 96-well broth microdilution method as described by de Rapper et al. (2013) and Akhalwaya et al. (2018) with slight modifications. Columns 1–11 was filled 50 µL LB, followed by the addition of 50 µL of Schiff base to column 1. Thereafter, 50 µL of Schiff bases from column 1 was transferred by multichannel pipette to columns 2–10, resulting in 50 µL Schiff bases per well. Column 11 contained 100 µL of diluted standardised inoculum, while Column 12 contained 100 µL of LB as a control to monitor sterility. Then, 50 µL of the microorganism suspension was then added to columns 1–10 and the control column 11. […]
# [5] = relative to o-hydroxy derivative (8)
# [6] = * = no fungicidal effect at the evaluated concentration, n = 3, read-out: MFC A. niger
Structure (SMILES),MBC (Staphylococcus aureus) [µM],MBC (Escherichia coli) [µM],MFC (Aspergillus niger; read-out: MFC A. niger) [µM],melting point [°C],IC50 [1] [µM],IC50 [2] [µM],IC50 [3] [µM],MFC (Candida albicans; read-out: MFC C. albicans) [µM],IC50 (H2O2-scavenging activity) [µM],IC50 (α-glucosidase) [µM],IC50 (α-amylase) [µM],MBC (Salmonella typhi) [µM],MBC (Enterococcus faecalis) [µM],MIC [4] [µM],"antibacterial activity (growth inhibition), S. aureus (Staphylococcus aureus; [5])","antibacterial activity (growth inhibition), E. coli (Escherichia coli; [5])",MFC (Aspergillus niger; [6]) [µM],"MFC (Candida albicans; 24 h, * = no fungicidal effect at the evaluated concentration, n = 3, read-out: MFC C. albicans) [µM]","antibacterial activity (growth inhibition), E. faecalis (Enterococcus faecalis; [5])","MFC (Candida albicans; * = no fungicidal effect at the evaluated concentration, n = 3, read-out: MFC C. albicans) [µM]"
"O=[N+]([O-])c1ccc(C=Nc2cc(O)[nH]n2)cc1 [Compound 1, 3-(((4-nitrophenyl)methylidene)amino)-1H-pyrazol-5-ol]",4.31,4.31,> 4.31,285,≥ 290,290 ± 9,410 ± 6,> 4.31,350 ± 5,540 ± 44,420 ± 36,2.15,4.31,,,,,,,
"Oc1cc(N=Cc2ccccc2)n[nH]1 [Compound 3, 3-((phenylmethylidene)amino)-1H-pyrazol-5-ol]",> 5.35,2.67,> 5.35,266,,360 ± 5,450 ± 7,> 5.35,410 ± 8,560 ± 82,200 ± 74,> 5.35,> 5.35,0.67,,,,,,
"O=[N+]([O-])c1ccc(C=Nc2c(O)cc(S(=O)(=O)O)c3ccccc23)cc1 [Compound 7, 4-(4-nitrobenzylideneamino)-3-hydroxynaphthalene-1-sulphonic acid]",> 2.69,1.34,,200,≥ 50,200,50 ± 5,,160 ± 90,961 ± 84,730 ± 16,> 2.69,> 2.69,0.67,very potent,very potent,2.69,1.53,very potent,
"O=S(=O)(O)c1cc(O)c(N=Cc2ccccc2)c2ccccc12 [Compound 9, 4-(benzylideneamino)-3-hydroxynaphthalene-1-sulphonic acid]",> 3.06,3.06,,246,,220 ± 6,50 ± 4,,190 ± 11,660 ± 97,561 ± 42,> 3.06,> 3.06,,,,1.53,,,1.53
